Reference: article PMC4767605 (Cancer chemotherapy and pharmacology, 2016)
Read-outs that look alike come from different tables or passages of the source.

[1] = Cohort 3 (n=3): ASP9853 37.5 mg + docetaxel 60 mg/m^2
[2] = Cohort 4 (n=7): ASP9853 50 mg + docetaxel 60 mg/m^2
[3] = Total ASP9853 combination with docetaxel (n=20)
[4] = lead-in phase, ASP9853 single agent
[5] = patients receiving ASP9853 in combination with docetaxel

O.O.O=C(/C=C/c1ccc(Cl)cc1)N[C@@H](Cc1ccccn1)C(=O)NCC(=O)N1CCC(Oc2cc(C(F)(F)F)ncn2)CC1 [ASP9853, (2E)-3-(4-chlorophenyl)-N-[(1S)-2-oxo-2-{[2-oxo-2-(4-{[6-(trifluoromethyl)-4-pyrimidinyl]oxy}-1-piperidinyl)ethyl]amino}-1-(2-pyridinylmethyl)ethyl]acrylamide dehydrate]
AE potentially related to ASP9853: Decreased appetite; Grade All [1]: 1 (33) n (%)
AE potentially related to ASP9853: Diarrhea; Grade 3/4 (only Grade 3) [1]: 0 n (%)
AE potentially related to ASP9853: Diarrhea; Grade All [1]: 1 (33) n (%)
AE potentially related to ASP9853: Dizziness; Grade 3/4 [1]: 0 n (%)
AE potentially related to ASP9853: Dizziness; Grade All [1]: 1 (33) n (%)
AE potentially related to ASP9853: Fatigue; Grade 3/4 (only Grade 3) [1]: 0 n (%)
AE potentially related to ASP9853: Fatigue; Grade All [1]: 2 (67) n (%)
AE potentially related to ASP9853: Febrile neutropenia; Grade 3/4 [1]: 0 n (%)
AE potentially related to ASP9853: Febrile neutropenia; Grade All [1]: 0 n (%)
AE potentially related to ASP9853: Nausea; Grade 3/4 [1]: 0 n (%)
AE potentially related to ASP9853: Nausea; Grade All [1]: 1 (33) n (%)
AE potentially related to ASP9853: Neutropenia; Grade 3/4 [1]: 1 (33) n (%)
AE potentially related to ASP9853: Neutropenia; Grade All [1]: 1 (33) n (%)
AE potentially related to ASP9853: Neutrophil count decreased; Grade 3/4 [1]: 1 (33) n (%)
AE potentially related to ASP9853: Neutrophil count decreased; Grade All [1]: 1 (33) n (%)
AE potentially related to ASP9853: Overall; Grade 3/4 [1]: 2 (67) n (%)
AE potentially related to ASP9853: Overall; Grade All [1]: 3 (100) n (%)
AE potentially related to ASP9853: Vomiting; Grade 3/4 [1]: 0 n (%)
AE potentially related to ASP9853: Vomiting; Grade All [1]: 0 n (%)
AE potentially related to ASP9853: White blood cell count decreased; Grade All [1]: 2 (67) n (%)
DLTs (Cohort 3: ASP9853 37.5 mg + docetaxel 60 mg/m^2, three patients): no DLTs were observed
SAE considered related to ASP9853: leukopenia (Cohort 4): 1 n
SAE considered related to ASP9853: neutropenia (Cohort 4): 1 n
AE potentially related to ASP9853: Anemia; Grade 3/4 [2]: 0 n (%)
AE potentially related to ASP9853: Anemia; Grade All [2]: 1 (14) n (%)
AE potentially related to ASP9853: Asthenia; Grade 3/4 [2]: 0 n (%)
AE potentially related to ASP9853: Asthenia; Grade All [2]: 0 n (%)
AE potentially related to ASP9853: Constipation; Grade 3/4 [2]: 0 n (%)
AE potentially related to ASP9853: Constipation; Grade All [2]: 1 (14) n (%)
AE potentially related to ASP9853: Decreased appetite; Grade 3/4 [2]: 0 n (%)
AE potentially related to ASP9853: Decreased appetite; Grade All [2]: 0 n (%)
AE potentially related to ASP9853: Diarrhea; Grade 3/4 (only Grade 3) [2]: 0 n (%)
AE potentially related to ASP9853: Diarrhea; Grade All [2]: 0 n (%)
AE potentially related to ASP9853: Dizziness; Grade 3/4 [2]: 0 n (%)
AE potentially related to ASP9853: Dizziness; Grade All [2]: 2 (29) n (%)
AE potentially related to ASP9853: Fatigue; Grade 3/4 (only Grade 3) [2]: 1 (14) n (%)
AE potentially related to ASP9853: Fatigue; Grade All [2]: 2 (29) n (%)
AE potentially related to ASP9853: Febrile neutropenia; Grade 3/4 [2]: 0 n (%)
AE potentially related to ASP9853: Febrile neutropenia; Grade All [2]: 0 n (%)
AE potentially related to ASP9853: Nausea; Grade 3/4 [2]: 0 n (%)
AE potentially related to ASP9853: Nausea; Grade All [2]: 1 (14) n (%)
AE potentially related to ASP9853: Neutropenia; Grade 3/4 [2]: 2 (29) n (%)
AE potentially related to ASP9853: Neutropenia; Grade All [2]: 2 (29) n (%)
AE potentially related to ASP9853: Neutrophil count decreased; Grade 3/4 [2]: 1 (14) n (%)
AE potentially related to ASP9853: Neutrophil count decreased; Grade All [2]: 1 (14) n (%)
AE potentially related to ASP9853: Overall; Grade 3/4 [2]: 4 (57) n (%)
AE potentially related to ASP9853: Overall; Grade All [2]: 7 (100) n (%)
AE potentially related to ASP9853: Vomiting; Grade 3/4 [2]: 0 n (%)
AE potentially related to ASP9853: Vomiting; Grade All [2]: 1 (14) n (%)
AE potentially related to ASP9853: White blood cell count decreased; Grade All [2]: 2 (29) n (%)
AE potentially related to ASP9853: Anemia; Grade 3/4 [3]: 0 n (%)
AE potentially related to ASP9853: Anemia; Grade All [3]: 3 (15) n (%)
AE potentially related to ASP9853: Asthenia; Grade 3/4 [3]: 0 n (%)
AE potentially related to ASP9853: Asthenia; Grade All [3]: 2 (10) n (%)
AE potentially related to ASP9853: Constipation; Grade 3/4 [3]: 0 n (%)
AE potentially related to ASP9853: Constipation; Grade All [3]: 3 (15) n (%)
AE potentially related to ASP9853: Decreased appetite; Grade 3/4 [3]: 0 n (%)
AE potentially related to ASP9853: Decreased appetite; Grade All [3]: 2 (10) n (%)
AE potentially related to ASP9853: Diarrhea; Grade 3/4 (only Grade 3) [3]: 1 (5) n (%)
AE potentially related to ASP9853: Diarrhea; Grade All [3]: 4 (20) n (%)
AE potentially related to ASP9853: Dizziness; Grade 3/4 [3]: 0 n (%)
AE potentially related to ASP9853: Dizziness; Grade All [3]: 3 (15) n (%)
AE potentially related to ASP9853: Fatigue; Grade 3/4 (only Grade 3) [3]: 2 (10) n (%)
AE potentially related to ASP9853: Fatigue; Grade All [3]: 9 (45) n (%)
AE potentially related to ASP9853: Febrile neutropenia; Grade 3/4 [3]: 2 (10) n (%)
AE potentially related to ASP9853: Febrile neutropenia; Grade All [3]: 2 (10) n (%)
AE potentially related to ASP9853: Nausea; Grade 3/4 [3]: 0 n (%)
AE potentially related to ASP9853: Nausea; Grade All [3]: 4 (20) n (%)
AE potentially related to ASP9853: Neutropenia; Grade 3/4 [3]: 4 (20) n (%)
AE potentially related to ASP9853: Neutropenia; Grade All [3]: 4 (20) n (%)
AE potentially related to ASP9853: Neutrophil count decreased; Grade 3/4 [3]: 2 (10) n (%)
AE potentially related to ASP9853: Neutrophil count decreased; Grade All [3]: 2 (10) n (%)
AE potentially related to ASP9853: Overall; Grade 3/4 [3]: 11 (55) n (%)
AE potentially related to ASP9853: Overall; Grade All [3]: 18 (90) n (%)
AE potentially related to ASP9853: Vomiting; Grade 3/4 [3]: 0 n (%)
AE potentially related to ASP9853: Vomiting; Grade All [3]: 4 (20) n (%)
AE potentially related to ASP9853: White blood cell count decreased; Grade All [3]: 5 (25) n (%)
Patients with AEs considered to be potential DLTs (all cohorts, ASP9853 + docetaxel): Five
Patients who met the protocol-defined DLT criteria (in Cohorts 1 and 2): three
Patients with post-baseline maximum Grade 1 neutropenia (laboratory evaluation): three
Patients with post-baseline maximum Grade 4 neutropenia (laboratory evaluation): eight
AE possibly related to ASP9853: QT prolonged electrocardiogram [4]: 1 n
AE possibly related to ASP9853: arthralgia [4]: 1 n
AE possibly related to ASP9853: asthenia [4]: 1 n
AE possibly related to ASP9853: gastrooesophageal reflux disease [4]: 1 n
AE possibly related to ASP9853: leukopenia [4]: 1 n
AE possibly related to ASP9853: nausea [4]: 1 n
AE possibly related to ASP9853: pollakiuria [4]: 1 n
AE possibly related to ASP9853: vomiting [4]: 1 n
AE regardless of relationship to study drug: alopecia [5]: 30.0%
AE regardless of relationship to study drug: decreased appetite [5]: 30.0%
AE regardless of relationship to study drug: decreased white blood cells [5]: 35.0%
AE regardless of relationship to study drug: fatigue [5]: 45.0%
AE regardless of relationship to study drug: nausea [5]: 35.0%
AE regardless of relationship to study drug: neutropenia [5]: 50.0%
